From publication PMC12284618 (Chemistry (Weinheim an Der Bergstrasse, Germany), 2025)
Counter-ions that a name gives are not always drawn. Like-named read-outs stand apart in the source and are kept apart here.

Assays:
[1] = target: T1, soluble CI‐M6P/IGF2R:D1–D15 (Homo sapiens, UniProt P11717); experiment: Reverse saturation fluorescence polarization binding of fluorescent glycopeptide 1
T1 construct: domains 1–15 (residues AA 41–2304); gp67 signal peptide (X1) (N, cleaved yes); 6‐His‐tag (C); PreScission protease cutting site (C); TwinStrep‐tag (C); made in house; host or cells: Spodoptera frugiperda Sf9 insect cells (baculovirus, pFastBac-1), secreted into the medium
Source text: The gene encoding human CI‐M6P/IGF2R domains 1–15 (residues AA 41–2304) fused to an N‐terminal gp67 signal peptide ([…]) and C‐terminal 6‐His‐tag, PreScission protease cutting site, and TwinStrep‐tag in pFastBac‐1 vector was used for bacmid generation in DH10Bac E. coli (Thermo Fisher Scientific). The recombinant bacmid DNA was purified using alkaline extraction and transfected using ExpiFectamine‐Sf (Thermo Fisher Scientific) into Spodoptera frugiperda 9 (Sf9) cells. […] Expression of the recombinant protein was assessed by SDS‐PAGE and Western Blot analysis. […]
We employed a fluorescence polarization (FP) binding assay to assess the binding affinity of the tested compounds for a soluble CI‐M6P/IGF2R ectodomain construct. […] Upon binding to the CI‐M6P/IGF2R protein, the probe's rotation slows, resulting in increased fluorescence polarization. This shift is quantified as anisotropy (or polarization), which reflects the ratio of bound to free probe, enabling binding affinity estimation without phase separation.^[ [26] ^] […]
We first analyzed the interaction between soluble CI‐M6P/IGF2R:D1–D15 and the fluorescent probe (glycopeptide 1) using a reverse saturation binding assay in solution. […]

CI‐M6P/IGF2R:D1–D15 = target: T2, CI‐M6P/IGF2R:D1–D15 (Homo sapiens, UniProt P11717); experiment: Competitive fluorescence polarization assay (displacement of fluorescent glycopeptide 1); type: binding; conditions: for Potency (relative binding potency): (IC50 of compound 2 / IC50 of compound) × 100
T2 construct: domains 1–15 (residues AA 41–2304); gp67 signal peptide (X1) (N, cleaved yes); 6‐His‐tag (C); PreScission protease cutting site (C); TwinStrep‐tag (C); made in house; host or cells: Spodoptera frugiperda Sf9 insect cells (baculovirus, pFastBac-1), secreted into the medium
Experimental: The recombinant bacmid DNA was purified using alkaline extraction and transfected using ExpiFectamine‐Sf (Thermo Fisher Scientific) into Spodoptera frugiperda 9 (Sf9) cells. The first generation of recombinant baculovirus was harvested after 5 days post‐transfection and amplified in subsequent shaking cultures of Sf9 in SF‐900 II serum‐free media (Thermo Fisher Scientific) at 27 °C and 130 rpm at a density of 2 × 10^6 cells/ml. Media containing viral particles were harvested after four days, and the amplification step was repeated to obtain high‐titer P2 stock, which was then used in large‐scale expression. […] The column was washed with a buffer containing 100 mM Tris‐HCl and 150 mM NaCl (pH 8.0), and the recombinant protein was eluted using the same buffer supplemented with 50 mM biotin. Expression of the recombinant protein was assessed by SDS‐PAGE and Western Blot analysis. Folding was checked by a competitive binding assay with radioactively labeled IGF2 (a natural ligand of IGF2R).^[ [25] ^]
We employed a fluorescence polarization (FP) binding assay to assess the binding affinity of the tested compounds for a soluble CI‐M6P/IGF2R ectodomain construct. This method monitors the rotational speed of a fluorescent probe—specifically, a fluorescein‐labeled glycopeptide 1. Upon binding to the CI‐M6P/IGF2R protein, the probe's rotation slows, resulting in increased fluorescence polarization. This shift is quantified as anisotropy (or polarization), which reflects the ratio of bound to free probe, enabling binding affinity estimation without phase separation.^[ [26] ^]
In all experiments, the compounds were dissolved in water and serially diluted with water in Echo Qualified 384‐Well PP Source Microplates using a BRAVO pipetting station (Agilent, USA). The compounds were then pre‐spotted onto black 384‐well low‐volume round‐bottom plates (Corning, USA) using an Echo 650 liquid handler (Beckman Coulter, USA) to obtain the desired final compound concentrations. Subsequently, 5 µL of the prepared mixture (soluble receptor and glycopeptide 1 in 100 mM Tris/HCl, 150 mM NaCl, pH 8.0) was added using either a MANTIS Liquid Dispenser (Formulatrix, Dubai, United Arab Emirates) or a Clicktip pipette (Thermo Fischer Scientific, USA). The plate was sealed with Duck Tape (Hampton Research USA) to prevent evaporation, shaken for 10 s at 800 rpm, centrifuged to remove bubbles, and then incubated at room temperature.
Next, competitive FP experiments were performed using a procedure analogous to previously reported methods.^[ [27] ^] […] Subsequently, 5 µL of a mixture containing CI‐M6P/IGF2R:D1–D15 (final concentration: 300 nM) and fluorescent glycopeptide 1 (final concentration: 10 nM) was added using a MANTIS Liquid Dispenser. The anisotropy data from the plate reader were plotted against the compound concentration using GraphPad Prism 8.0. A nonlinear regression analysis, “log [Inhibitor] versus response – Variable slope (four parameters),” was used to calculate the IC₅₀ values (the concentration at which half‐maximal inhibition is achieved) for each competition experiment. Relative binding affinities were calculated as (IC₅₀ of compound 2 / IC₅₀ of each compound) × 100 (%).

CI‐M6P/IGF2R = target: CI‐M6P/IGF2R; parameters: method as in PMID 3003148; conditions: monomeric M6P; cited from earlier work
[2] = receptor 300 nM, glycopeptide 1 10 nM, pH 8.0, mean of two independent measurements in triplicate ± S.D., read-out: IC50
[3] = receptor 300 nM, glycopeptide 1 10 nM, pH 8.0, mean of two independent measurements in triplicate ± S.D.

Potency (relative binding potency) (CI‐M6P/IGF2R:D1–D15) [%] | Compound | IC50 (CI‐M6P/IGF2R:D1–D15; [2]) [nM] | other results
– | NCCCC[C@H](NC(=O)[C@H](Cc1cn(CCO[C@H]2O[C@H](CCP(=O)(O)O)[C@@H](O)[C@H](O)[C@@H]2O)nn1)NC(=O)[C@H](CO)NC(=O)[C@H](Cc1cn(CCO[C@H]2O[C@H](CCP(=O)(O)O)[C@@H](O)[C@H](O)[C@@H]2O)nn1)NC(=O)[C@H](CCCCN)NC(=O)[C@H](Cc1cn(CCO[C@H]2O[C@H](CCP(=O)(O)O)[C@@H](O)[C@H](O)[C@@H]2O)nn1)NC(=O)[C@H](CO)NC(=O)[C@H](Cc1cn(CCO[C@H]2O[C@H](CCP(=O)(O)O)[C@@H](O)[C@H](O)[C@@H]2O)nn1)NC(=O)[C@H](CCCCN)NC(=O)[C@H](Cc1cn(CCO[C@H]2O[C@H](CCP(=O)(O)O)[C@@H](O)[C@H](O)[C@@H]2O)nn1)NC(=O)[C@H](CO)NC(=O)CNC(=O)c1ccc2c(c1)C(=O)OC21c2ccc(O)cc2Oc2cc(O)ccc21)C(N)=O [Compound 1] | – | Kd ([1]; glycopeptide 1 10 nM titrated with receptor 0-1500 nM, pH 8.0, read-out: dissociation constant (Kd)): ~400 nM; cooperativity coefficient (n), Hill koef ([1]; specific binding with Hill slope, glycopeptide 1 10 nM): −2.35
– | NCCCC[C@H](NC(=O)[C@H](Cc1cn(CCO[C@H]2O[C@H](CCP(=O)(O)O)[C@@H](O)[C@H](O)[C@@H]2O)nn1)NC(=O)[C@H](Cc1c[nH]c2ccccc12)NC(=O)[C@@H](N)Cc1cn(CCO[C@H]2O[C@H](CCP(=O)(O)O)[C@@H](O)[C@H](O)[C@@H]2O)nn1)C(=O)N[C@@H](Cc1cn(CCO[C@H]2O[C@H](CCP(=O)(O)O)[C@@H](O)[C@H](O)[C@@H]2O)nn1)C(N)=O [Compound 3] | – | IC50 (CI‐M6P/IGF2R:D1–D15): 490 ± 40 nM
– | CC(=O)NCCCC[C@H](NC(=O)[C@H](Cc1cn(CCO[C@H]2O[C@H](CCP(=O)(O)O)[C@@H](O)[C@H](O)[C@@H]2O)nn1)NC(=O)[C@H](Cc1c[nH]c2ccccc12)NC(=O)[C@H](Cc1cn(CCO[C@H]2O[C@H](CCP(=O)(O)O)[C@@H](O)[C@H](O)[C@@H]2O)nn1)NC(C)=O)C(=O)N[C@@H](Cc1cn(CCO[C@H]2O[C@H](CCP(=O)(O)O)[C@@H](O)[C@H](O)[C@@H]2O)nn1)C(N)=O [Compound 4] | – | IC50 (CI‐M6P/IGF2R:D1–D15): 490 ± 70 nM
– | NC(=O)[C@H](Cc1cn(CCO[C@H]2O[C@H](CCP(=O)(O)O)[C@@H](O)[C@H](O)[C@@H]2O)nn1)NC(=O)[C@H](Cc1c[nH]c2ccccc12)NC(=O)[C@@H](N)Cc1cn(CCO[C@H]2O[C@H](CCP(=O)(O)O)[C@@H](O)[C@H](O)[C@@H]2O)nn1 [Compound 5] | 480 ± 100 | –
– | CC(=O)N[C@@H](Cc1cn(CCO[C@H]2O[C@H](CCP(=O)(O)O)[C@@H](O)[C@H](O)[C@@H]2O)nn1)C(=O)N[C@@H](Cc1c[nH]c2ccccc12)C(=O)N[C@@H](Cc1cn(CCO[C@H]2O[C@H](CCP(=O)(O)O)[C@@H](O)[C@H](O)[C@@H]2O)nn1)C(N)=O [Compound 6] | 660 ± 900 | –
4.1 | CO[C@H]1O[C@H](CCP(=O)(O)O)[C@@H](O)[C@H](O)[C@@H]1O [Compound 8, Methyl 6-deoxy-6-phosphonomethyl-α-D-mannopyranoside bis(triethylammonium) salt] | – | IC50 (CI‐M6P/IGF2R:D1–D15; values used for comparison with calculations, read-out: experimental IC50 (as listed in Tables S1-S3)): 11500 nM
0.35 | CO[C@H]1O[C@H](CP(=O)(O)O)[C@@H](O)[C@H](O)[C@@H]1O [Compound 9] | 137000 ± 2000 | –
– | CO[C@H]1O[C@H](CCc2nnn[nH]2)[C@@H](O)[C@H](O)[C@@H]1O [Compound 10] | – | IC50 (CI‐M6P/IGF2R:D1–D15; [3]): did not bind and unmeasurably low and n.b.
0.85 | CO[C@H]1O[C@H](CCC(=O)O)[C@@H](O)[C@H](O)[C@@H]1O [Compound 11] | 56000 ± 12000 | fold reduction in binding affinity compared to native M6P 7 (CI‐M6P/IGF2R:D1–D15): fivefold
– | CO[C@H]1O[C@H](Cc2nnn[nH]2)[C@@H](O)[C@H](O)[C@@H]1O [Compound 12] | – | IC50 (CI‐M6P/IGF2R:D1–D15; [3]): did not bind and unmeasurably low and n.b.
11.3 | O=P(O)(O)CC[C@H]1O[C@H](C/C=C/c2ccc(O)cc2)[C@@H](O)[C@@H](O)[C@@H]1O [Compound 13] | 4200 ± 20 | fold increase in binding affinity compared to compound 8 (CI‐M6P/IGF2R:D1–D15): almost threefold
– | mannose‐6‐phosphate [Compound 7] | – | Kd (CI‐M6P/IGF2R): ~7000 nM

Compound | Potency (relative binding potency) (CI‐M6P/IGF2R:D1–D15) [%] | IC50 (CI‐M6P/IGF2R:D1–D15; [2]) [nM] | other results
CC(=O)N[C@@H](Cc1c[nH]c2ccccc12)C(=O)N[C@@H](Cc1ccccc1)C(=O)NCC(=O)N[C@@H](CO)C(=O)N[C@@H](Cc1cn(CCO[C@H]2O[C@H](CCP(=O)(O)O)[C@@H](O)[C@H](O)[C@@H]2O)nn1)C(=O)N[C@@H](CCCCN)C(=O)N[C@@H](Cc1cn(CCO[C@H]2O[C@H](CCP(=O)(O)O)[C@@H](O)[C@H](O)[C@@H]2O)nn1)C(=O)N[C@@H](CO)C(=O)N[C@@H](Cc1cn(CCO[C@H]2O[C@H](CCP(=O)(O)O)[C@@H](O)[C@H](O)[C@@H]2O)nn1)C(=O)N[C@@H](CCCCN)C(=O)N[C@@H](Cc1cn(CCO[C@H]2O[C@H](CCP(=O)(O)O)[C@@H](O)[C@H](O)[C@@H]2O)nn1)C(=O)N[C@@H](CO)C(=O)N[C@@H](Cc1cn(CCO[C@H]2O[C@H](CCP(=O)(O)O)[C@@H](O)[C@H](O)[C@@H]2O)nn1)C(=O)N[C@@H](CCCCN)C(N)=O [Compound 2] | 100.0 | 480 ± 110 | –
